From US20110229553A1, “Plant Extract with Pharmacological Profile for Treating or Preventing Diseases, Dysfunctions and Disorders of the Central Nervous System, Neurodegenerative Disorders and Sequel from Vascular Dementia” (priority 2010, published 2011)

System: BALB/c mice MPTP induced tremor
Assay: MPTP-induced tremor in BALB/c mice
Assay type: in vivo
Settings: extract 25 or 50 mg/kg, apomorphine 3 mg/kg
Method: Animals: Male adult mice, C57BL/6 and BALB/c strain (FEEPS) were used and maintain with water and foot ad libitum under controlled environment.
Treatments in BALB/c: MPTP (1-methyl-4-phenyl-1,2,3,6-tetrahydropyridine) 60 mg/kg (2×30 mg/kg) was administered intraperitonially (i.p.), twice, 16 h apart. Saline, DMSO 20%, Ptychopetalum olacoides extract 50 mg/kg (2×25 mg/kg), POEE 25 mg/kg (2×12.5 mg/kg) and apomorphine 3 mg/kg (2×1.5 mg/kg) were given 30 min before each MPTP administration. The animals received the first injections at 17:00 h and the second at 09:00 h the next day. The volume of injection was […] body weight. N=6.
Tremor in C57BL/6 and in BALB/c: Tremors were observed immediately after the administration of the second MPTP dose, with animals placed in a clear Plexiglas box (20 cm×20 cm×20 cm) for 45 min; tremor scores were noted every 3 min, with the highest score considered for the period. […]

## CN1CCc2cccc3c2[C@H]1Cc1ccc(O)c(O)c1-3 [apomorphine]
  total tremor duration: not affected
